Test results published in EP0437336B1, “Biophosphoryl hydrazines and their use as pesticides” (priority 1990, dated 1991).
In brackets after ≈: the same amount, converted by molar mass. Like-named read-outs stand apart in the source and are kept apart here.

Key:
[1] = test system: Two-Spotted Spider Mite; test: Biological Method D: Foliar Insecticidal Activity Test, mite test; format: in vivo, Tetranychus urticae; design: key to LC50 TSM: I = inactive at concentration listed; details: Two-Spotted Spider Mite; for LC50: Tetranychus urticae
[2] = test system: Southern Armyworm; test: Biological Method D: Foliar Insecticidal Activity Test, Southern Armyworm test; format: in vivo, Spodoptera eridania; details: Spodoptera eridania, Southern Armyworm
Method: (§1) Biological Method D: Foliar Insecticidal Activity Test
(§2) In evaluating the foliar insecticidal activity of the compounds of this invention against insects and mites, the following test procedures were employed.
(§3) Not all compounds were tested at each of the several concentrations stated above. Test concentrations of a compound were selected as those most likely to differentiate dose response of a particular compound toward a particular test insect.
(§4) Initial evaluations were made on one or more of the following pests:
(§5) For the Mexican Bean Beetle and Southern armyworm tests, individual lima bean (Phaseolus limeniss var. Woods' Prolific) leaves were placed on moistened pieces of filter paper in Petri dishes. The leaves were then sprayed with the test solution using a rotating turntable and allowed to dry. The dishes were then infested with 10 third instar larvae of either the Mexican Been Beetle or the Southern Armyworm. The dishes were then covered. Percent mortality was determined for each species and spray concentration at 48 and 96 hours after treatment.
(§6) The mortalities obtained in this manner were plotted on logarithmic probability paper.
(§7) The rotating turntable consists of a fixed, continuously operating spray nozzle under which targets are rotated at a fixed speed and distance. If the target is a Petri dish (such as for the bean beetle, armyworm, mite, or aphid tests), the distance from the nozzle is 38.1 cm (15 inches). If the target is a Mason jar (such as for the boll weevil test), the distance from the nozzle is 17.8 cm (7 inches). The nozzle is located 8 inches from the rotating shaft. The targets on individual platforms revolve around the shaft at 1 revolution per 20 seconds but only a brief portion of this time occurs in the spray path. Targets pass only once under the nozzle and then are removed to drying hoods.
(§8) The nozzle used is a 1/4 JCO Spraying Systems (Wheaton, Illinois) air atomizing nozzle equipped with a No. 2850 fluid cap and a No. 70 air cap. At the 68.95 x 10³ Pa gauge (10 psig) air pressure used and with liquid siphon feed, 1.89 ℓ/hr [0.5 GPH (gallons per hour)] are delivered in a round spray pattern with a 21 degree spray angle. Targets are misted with spray droplets to the point that the droplets coalesce to form a uniform thin film insufficient to drown test organisms.

[3] = test system: Boll Weevil; test: Biological Method D: Foliar Insecticidal Activity Test, boll weevil test; format: in vivo, Anthonomous grandis; design: key: I = inactive at concentration listed
[4] = test system: southern corn rootworm, Diabrotica undecimpunctata howardi; test: Biological Method A: Corn Rootworm Screening Test (treated non-aggressive soil); details: soil concentration giving 90% mortality, 10 days at 27°C
[5] = test system: southern corn rootworm, Diabrotica undecimpunctata howardi; details: for foliar systemic nonagressive Method B crw % control at 0.56 kg/ha (0.5 lb/acre): percent control relative to infested check, from root damage ratings, 14 days post-spraying
[6] = test system: Green Peach Aphid; test: Biological Method D: Foliar Insecticidal Activity Test, aphid test; format: in vivo, Myzus persicae; details: Myzus persicae, Green Peach Aphid
Method: as §1, §2, §3, §4
(§9) For the aphid test, infested broccoli (Brassica oleracea italica var. DiCicco) leaves containing about 50 aphids were placed in a Petri dish lid on a moistened piece of cotton. The leaves were then sprayed to thorough wetness with the test solution using a rotating turntable, held for twenty-four hours and then the percentage killed was determined.
as §6, §7, §8

[7] = test system: Southern Armyworm; test: Biological Method D: Foliar Insecticidal Activity Test, Southern Armyworm test; format: in vivo, Spodoptera eridania; design: key: I = inactive at concentration listed
[8] = test system: Mexican Bean Beetle; test: Biological Method D: Foliar Insecticidal Activity Test, Mexican Bean Beetle test; format: in vivo, Epilachna varivestis; details: Epilachna varivestis, Mexican Bean Beetle
[9] = test system: southern corn rootworm, Diabrotica undecimpunctata howardi; details: at-planting soil application
[10] = test system: Green Peach Aphid; test: Biological Method D: Foliar Insecticidal Activity Test, aphid test; format: in vivo, Myzus persicae; design: key: I = inactive at concentration listed
[11] = test system: Boll Weevil; test: Biological Method D: Foliar Insecticidal Activity Test, boll weevil test; format: in vivo, Anthonomous grandis; design: key: I = inactive at concentration tested; details: compounds a-r
Method: as §1, §2, §3, §4
For the boll weevil test, 10 adult weevils were placed in a 0.24 ℓ (0.5 pint) glass Mason jar containing a small cube of apple. The weevils were confined to the jar by fiberglass screen mesh secured by a screw-type rim cap. The jars were then sprayed with the test solution using a rotating turntable; directing the spray through the mesh into the jar. The percentage killed was determined after forty-eight and ninety six hours.
as §6, §7, §8

[12] = test system: Southern Armyworm; test: Biological Method D: Foliar Insecticidal Activity Test, Southern Armyworm test; format: in vivo, Spodoptera eridania; design: key: I = inactive at concentration tested; details: compounds a-r
Method: as §1, §2, §3, §4, §5, §6, §7, §8

[13] = test system: Boll Weevil; test: Biological Method D: Foliar Insecticidal Activity Test, boll weevil test; format: in vivo, Anthonomous grandis; details: Boll Weevil, compounds a-r
[14] = test system: Green Peach Aphid; test: Biological Method D: Foliar Insecticidal Activity Test, aphid test; format: in vivo, Myzus persicae; design: key: I = inactive at concentration tested; details: compounds a-r
Method: as §1, §2, §3, §4, §9, §6, §7, §8

[15] = Method D foliar test, 96 hrs, read-out: LC50 AW 96 hrs
[16] = Method D foliar test, read-out: LC50 TSM
[17] = Method D foliar test, 48 hrs, read-out: LC50 BB 48 hrs.
[18] = Method D foliar test, 96 hrs, read-out: LC50 BB 96 hrs
[19] = foliar, compounds a-r, read-out: LC 50 TSM
[20] = foliar, 48 hrs, compounds a-r, read-out: LC 50 AW 48 hrs.
[21] = foliar, 96 hrs, compounds a-r, read-out: LC 50 AW 96 hrs.
[22] = foliar, 48 hrs, compounds a-r, read-out: LC 50 BB 48 hrs.
[23] = foliar, 96 hrs, compounds a-r, read-out: LC 50 BB 96 hrs.

Row | SMILES | LC50 [1, 19] | LC50 [8, 22] | LC50 [8, 23] | LC50 BW 48 hrs [11] | LC50 BW 96 hrs [11] | LC50 AW 48 hrs [12] | LC50 AW 96 hrs [12] | LC50 GPA [14] | further results
1 | CCOP(=S)(NNP(=S)(OCC)OCC)OCC [Compound 1, reference compound] | – | – | – | – | – | – | – | – | LC50 TSM ([1]; Method D foliar test): I; LC50 [2, 15]: 500 µg/mL (≈ 1490 µM); LC50 BW 48 hrs [3]: I; LC50 BW 96 hrs [3]: I; primary nonagressive Method A crw LC90 [4]: 0.5 ppm; foliar systemic nonagressive Method B crw % control at 0.56 kg/ha (0.5 lb/acre) [5]: 16%; LC50 ([6]; Method D foliar test): 500 µg/mL (≈ 1490 µM); LC50 AW 48 hrs [7]: I
2 | CCOP(=O)(NNP(=S)(OCC)OCC)OCC [Compound 2, reference compound] | – | – | – | – | – | – | – | – | LC50 [1, 16]: 540 µg/mL (≈ 1690 µM); LC50 BW 48 hrs [3]: I; LC50 BW 96 hrs [3]: I; primary nonagressive Method A crw LC90 [4]: 0.87 ppm; foliar systemic nonagressive Method B crw % control at 0.56 kg/ha (0.5 lb/acre) [5]: 0%; LC50 ([6]; Method D foliar test): 150 µg/mL (≈ 468 µM); LC50 AW 48 hrs [7]: I; LC50 AW 96 hrs [7]: I
3 | CCCOP(=S)(NNP(=S)(OCC)SC(C)C)OCCC (stereo not shown) [Compound 23] | – | – | – | – | – | – | – | – | LC50 [1, 16]: 150 µg/mL (≈ 380 µM); LC50 BW 48 hrs [3]: I; LC50 BW 96 hrs [3]: I; LC50 [8, 17]: 62 µg/mL (≈ 157 µM); LC50 [8, 18]: 78 µg/mL (≈ 198 µM); primary nonagressive Method A crw LC90 [4]: 0.55 ppm; pest or weed control at 560 g/ha ([5]; Diabrotica undecimpunctata, in Zea mays, foliar, 336 h, read-out: foliar systemic nonagressive Method B crw % control at 0.56 kg/ha (0.5 lb/acre)): 16%; LC50 ([6]; Method D foliar test): 150 µg/mL (≈ 380 µM); LC50 AW 48 hrs [7]: I; LC50 AW 96 hrs [7]: I
4 | CCCOP(=S)(NNP(=S)(OCC)OCCC)OCC (stereo not shown) [Compound 29, reference compound] | – | – | – | – | – | – | – | – | LC50 [1, 16]: 150 µg/mL (≈ 412 µM); LC50 ([2]; Method D foliar test, 48 hrs, read-out: LC50 AW 48 hrs): 420 µg/mL (≈ 1150 µM); LC50 [2, 15]: 180 µg/mL (≈ 494 µM); secondary aggressive Method C crw LC50 ([9]; rated 17 days post-infestation): ~3.03 kg/ha; secondary aggressive Method C crw LC50 ([9]; value in brackets): ~2.7 lb/acre; LC50 BW 48 hrs [3]: I; LC50 BW 96 hrs [3]: I; LC50 [8, 17]: 150 µg/mL (≈ 412 µM); LC50 [8, 18]: 150 µg/mL (≈ 412 µM); primary nonagressive Method A crw LC90 [4]: 0.09 ppm; LC50 GPA [10]: I; foliar systemic nonagressive Method B crw % control at 0.56 kg/ha (0.5 lb/acre) [5]: 38%
5 | CCOP(=S)(NN(C)P(=S)(OCC)OCC)OCC [a, N,N′-bis-(O,O-diethylthiophosphoryl) N-methyl hydrazine] | 150 µg/mL (≈ 428 µM) | 500 µg/mL (≈ 1430 µM) | 420 µg/mL (≈ 1200 µM) | I | I | – | – | – | LC50 [2, 20]: 150 µg/mL (≈ 428 µM); LC50 [2, 21]: 150 µg/mL (≈ 428 µM); LC50 ([6]; foliar, compounds a-r): 150 µg/mL (≈ 428 µM)
6 | CCOP(=S)(OCC)N(C)N(C)P(=S)(OCC)OC(C)C (stereo not shown) [b, N-(O,O-diethylthiophosphoryl) N′-(O-ethyl O-isopropylthiophosphoryl) N,N′-dimethyl hydrazine] | 5.5 µg/mL (≈ 14.5 µM) | 150 µg/mL (≈ 396 µM) | 150 µg/mL (≈ 396 µM) | – | – | I | I | – | LC50 ([6]; foliar, compounds a-r): 36 µg/mL (≈ 95.1 µM); LC50 BW 48 hrs [13]: 740 ppm; LC50 BW 96 hrs [13]: 150 ppm
7 | CCCOP(=S)(NN(C)P(=S)(OCC)OCC)OCC (stereo not shown) [c, N-(O,O-diethylthiophosphoryl) N′-(O-ethyl O-propylthiophosphoryl) N-methyl hydrazine] | 150 µg/mL (≈ 412 µM) | 150 µg/mL (≈ 412 µM) | 150 µg/mL (≈ 412 µM) | I | I | – | – | – | LC50 [2, 20]: 150 µg/mL (≈ 412 µM); LC50 [2, 21]: 150 µg/mL (≈ 412 µM); LC50 ([6]; foliar, compounds a-r): 290 µg/mL (≈ 796 µM)
8 | CCCOP(=S)(NN(C)P(=S)(OCC)OCC)OCCC [d] | 150 µg/mL (≈ 396 µM) | 150 µg/mL (≈ 396 µM) | 150 µg/mL (≈ 396 µM) | I | I | I | I | I | –
9 | COP(=S)(NN(C)P(=S)(OC)OC)OC [h] | – | – | – | I | I | I | I | I | –
10 | CCOP(=S)(OCC(C)(C)C)N(C)NP(=S)(OC)OC (stereo not shown) [i, N-(O,O-dimethylthiophosphoryl) N′-(O-ethyl O-neopentylthiophosphoryl) N′-methyl hydrazine] | 150 µg/mL (≈ 412 µM) | – | – | I | I | I | I | I | –
11 | CCOP(=S)(NN(C)P(=S)(OCC)OCC)OCC(C)(C)C (stereo not shown) [j] | – | – | – | I | I | I | I | I | –
12 | CCOP(=O)(SC(C)CC)N(C)NP(=S)(OCC)OCC(C)(C)C (stereo not shown) [k] | – | – | 52 µg/mL (≈ 124 µM) | I | I | I | I | – | LC50 ([6]; foliar, compounds a-r): 300 µg/mL (≈ 713 µM)
13 | CCOP(=O)(NN(C)P(=S)(OC)OC)SC(C)CC (stereo not shown) [l, N-(O,O-dimethylthiophosphoryl) N'-(O-ethyl S-secbutyl chloro phosphoryl) N-methyl hydrazine] | 660 µg/mL (≈ 1880 µM) | – | – | I | – | I | I | I | LC50 BW 96 hrs [13]: 740 ppm
14 | CCOP(=O)(SC(C)CC)N(C)N(C)P(=S)(OC)OC (stereo not shown) [m] | 150 µg/mL (≈ 412 µM) | 600 µg/mL (≈ 1650 µM) | 38 µg/mL (≈ 104 µM) | – | – | I | I | I | LC50 BW 48 hrs [13]: 740 ppm; LC50 BW 96 hrs [13]: 740 ppm
15 | CCOP(=S)(OCC)N(C)NP1(=S)OCC(C)(C)CO1 [n] | – | 150 µg/mL (≈ 414 µM) | 150 µg/mL (≈ 414 µM) | I | I | I | I | I | –
16 | CCOP(=S)(NN(C(=O)OC)P(=S)(OCC)OCC)OCC [o] | 150 µg/mL (≈ 380 µM) | 52 µg/mL (≈ 132 µM) | 45 µg/mL (≈ 114 µM) | I | – | I | I | I | LC50 BW 96 hrs [13]: 740 ppm
17 | CCOP(=S)(NN(C)P(=S)(OCC)OC(C)C)OCC (stereo not shown) [q] | – | 300 µg/mL (≈ 823 µM) | 72 µg/mL (≈ 198 µM) | – | I | I | I | I | –
18 | CCOP(=S)(NN(C)P(=S)(OC)OC)OCC(C)(C)C (stereo not shown) [r] | – | – | – | – | – | I | I | I | –
